Measured values published in ChEMBL document CHEMBL1122477, “Neuroleptic activity and dopamine-uptake inhibition in 1-piperazino-3-phenylindans” (J Med Chem, 1983).

Legend:
[1] = system: Rattus norvegicus; assay: Tested orally in rats for antagonism of stereotypies induced by amphetamine; type: functional
[2] = species on record: Rattus norvegicus; assay: animal or person; settings: po
Description: (§1) Ability to induce catalepsy in rats perorally, an effect normally related to clinical extrapyramidal side effects

[3] = species on record: Mus musculus; assay: animal or person; settings: ip
Description: (§2) Compound (administered intraperitoneally) was assessed for neuroleptic activity to antagonize methyl phenidate induced stereotypes in mice

[4] = species on record: Mus musculus
Description: as §2

[5] = species on record: Rattus norvegicus
Description: as §1

[6] = target: T1, Sodium-dependent serotonin transporter (Rattus norvegicus, UniProt P31652); assay: Effect on synaptosomal uptake inhibition of 5-hydroxytryptamine (5-HT); type: functional
T1 sequence (P31652 whole entry): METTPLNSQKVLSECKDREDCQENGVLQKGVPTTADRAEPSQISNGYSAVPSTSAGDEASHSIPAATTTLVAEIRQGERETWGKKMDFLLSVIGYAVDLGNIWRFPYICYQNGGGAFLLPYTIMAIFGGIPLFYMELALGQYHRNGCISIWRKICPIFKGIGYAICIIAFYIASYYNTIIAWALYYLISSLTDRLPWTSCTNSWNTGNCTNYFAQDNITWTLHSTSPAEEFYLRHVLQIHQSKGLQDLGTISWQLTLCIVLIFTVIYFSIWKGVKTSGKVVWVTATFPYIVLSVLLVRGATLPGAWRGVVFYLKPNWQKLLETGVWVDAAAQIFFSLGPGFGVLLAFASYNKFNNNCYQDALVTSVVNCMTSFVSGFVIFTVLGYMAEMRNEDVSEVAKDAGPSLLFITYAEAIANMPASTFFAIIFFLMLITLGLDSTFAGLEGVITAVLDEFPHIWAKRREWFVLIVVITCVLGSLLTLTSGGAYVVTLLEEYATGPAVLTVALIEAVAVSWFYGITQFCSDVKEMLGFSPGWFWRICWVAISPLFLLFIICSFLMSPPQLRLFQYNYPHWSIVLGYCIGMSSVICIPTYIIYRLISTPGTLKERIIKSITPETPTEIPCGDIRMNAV

[7] = target: Norepinephrine transporter (Rattus norvegicus, UniProt Q9WTR4)
Sequence of Norepinephrine transporter (Q9WTR4 whole entry): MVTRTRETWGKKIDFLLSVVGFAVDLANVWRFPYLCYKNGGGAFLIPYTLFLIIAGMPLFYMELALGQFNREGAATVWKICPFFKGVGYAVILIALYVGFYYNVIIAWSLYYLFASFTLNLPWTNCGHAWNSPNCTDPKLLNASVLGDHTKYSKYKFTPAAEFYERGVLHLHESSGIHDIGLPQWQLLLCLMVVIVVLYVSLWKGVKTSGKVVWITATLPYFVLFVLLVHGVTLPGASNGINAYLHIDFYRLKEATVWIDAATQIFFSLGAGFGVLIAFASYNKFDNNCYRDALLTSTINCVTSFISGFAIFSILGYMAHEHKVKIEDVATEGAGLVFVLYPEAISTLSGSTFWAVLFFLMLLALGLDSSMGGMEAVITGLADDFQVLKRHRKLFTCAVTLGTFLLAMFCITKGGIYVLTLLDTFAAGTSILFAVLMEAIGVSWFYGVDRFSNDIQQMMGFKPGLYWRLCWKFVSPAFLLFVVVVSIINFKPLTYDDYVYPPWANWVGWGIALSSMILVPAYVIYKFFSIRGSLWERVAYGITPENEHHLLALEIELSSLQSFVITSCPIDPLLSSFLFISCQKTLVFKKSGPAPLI
Description: Effect on synaptosomal uptake inhibition of Noradrenaline (NA)

[8] = species on record: Mus musculus; assay: Assessed for thymoleptic activity by its ability to antagonize tetrabenazine ptosis in mice; type: functional
[9] = target: Dopamine receptor
Description: Effect on synaptosomal uptake inhibition of Dopamine receptor

[10] = target: T1, Sodium-dependent serotonin transporter
[11] = target: Sodium-dependent dopamine transporter (Rattus norvegicus, UniProt P23977)
Sequence of Sodium-dependent dopamine transporter (P23977 whole entry): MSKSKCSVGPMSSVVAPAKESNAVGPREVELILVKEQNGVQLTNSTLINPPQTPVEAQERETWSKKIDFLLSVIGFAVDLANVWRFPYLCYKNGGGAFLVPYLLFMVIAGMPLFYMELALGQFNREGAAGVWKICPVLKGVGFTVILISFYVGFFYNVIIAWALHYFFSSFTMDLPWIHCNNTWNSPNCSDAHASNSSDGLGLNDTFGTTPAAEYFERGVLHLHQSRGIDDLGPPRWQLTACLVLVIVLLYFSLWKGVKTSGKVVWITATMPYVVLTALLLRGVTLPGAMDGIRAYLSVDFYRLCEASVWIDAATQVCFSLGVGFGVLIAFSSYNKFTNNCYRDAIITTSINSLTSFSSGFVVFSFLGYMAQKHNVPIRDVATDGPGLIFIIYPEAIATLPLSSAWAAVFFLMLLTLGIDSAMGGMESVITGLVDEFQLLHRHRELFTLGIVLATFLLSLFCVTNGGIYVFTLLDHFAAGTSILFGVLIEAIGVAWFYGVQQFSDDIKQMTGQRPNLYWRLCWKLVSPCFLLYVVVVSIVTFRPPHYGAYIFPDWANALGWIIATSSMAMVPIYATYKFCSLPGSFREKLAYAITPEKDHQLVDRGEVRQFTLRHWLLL
Description: Effect on synaptosomal uptake inhibition of Dopamine transporter

[12] = Rattus norvegicus, po, read-out: ED50

## CSc1ccc2c(c1)C(N1CCN(CCO)CC1)CC2c1ccc(F)cc1 (configuration not stated)
[1]; [12]
  ED50: 20 µmol/kg
[2]
  ED50: 14 µmol/kg
[3]
  ED50: 2.8 µmol/kg

## Cl.Cl.OCCCN1CCN(C2CC(c3ccc(F)cc3)c3ccc(F)cc32)CC1 (configuration not stated)
[1]; [12]
  ED50: 5.2 µmol/kg
[4]
  ED50: 3.7 µM/kg
[2]
  ED50: 8.3 µmol/kg

## OCC(O)CN1CCN(C2CC(c3ccc(F)cc3)c3ccc(F)cc32)CC1 (configuration not stated)
[5]
  ED50: >102 µM/kg
[4]
  ED50: >51 µM/kg

## OCCCN1CCN(C2CC(c3ccc(Cl)c(Cl)c3)c3ccccc32)CC1 (configuration not stated)
[6]
  IC50: 120 nM
[7]
  IC50: 6.8 nM
[8]
  ED50: 12 µM/kg
[9]
  IC50: 15 nM

## Cl.Cl.OCCCN1CCN(C2CC(c3ccc(Cl)c(Cl)c3)c3ccccc32)CC1 (configuration not stated)
[6]
  IC50: 440 nM
[7]
  IC50: 0.3 nM
[8]
  ED50: 71 µM/kg
[9]
  IC50: 5.6 nM

## OCCN1CCN(C2CC(c3ccc(F)cc3)c3ccccc32)CC1 (configuration not stated)
[3]
  ED50: > 118 µmol/kg

## CCN1CCN(C2CC(c3ccc(F)cc3)c3ccc(F)cc32)CC1.Cl.Cl (cis isomer)
[4]
  ED50: >96 µM/kg

## Cl.Cl.OCCN1CCN(C2CC(c3ccc(Cl)cc3Cl)c3ccccc32)CC1 (cis isomer)
[8]
  ED50: >94 µM/kg
[9]
  IC50: 2000 nM

## Cl.Cl.Clc1ccc(C2CC(N3CCN(C/C=C/c4ccccc4)CC3)c3ccccc32)cc1Cl (cis isomer)
[8]
  ED50: >73 µM/kg
[9]
  IC50: 35 nM

## Cl.Cl.OCCN1CCN(C2CC(c3ccc(Cl)c(Cl)c3)c3ccccc32)CC1 (cis isomer)
[6]
  IC50: 600 nM
[7]
  IC50: 10 nM
[8]; Mus musculus, read-out: ED50
  ED50: 72 µmol/kg
[9]
  IC50: 12 nM

## Fc1ccc(C2CC(N3CCN(CCc4ccccc4)CC3)c3cc(F)ccc32)cc1 (cis isomer)
[4]
  ED50: >95 µM/kg

## OCCCN1CCN(C2CC(c3ccc(F)cc3)c3ccc(F)cc32)CC1 (cis isomer)
[4]
  ED50: >90 µM/kg

## Cc1ccc([C@@H]2C[C@@H](N3CCN(CCO)CC3)c3cc(C(F)(F)F)ccc32)cc1 (relative stereo)
[1]; [12]
  ED50: 64 µmol/kg
[2]
  ED50: > 81 µmol/kg
[3]
  ED50: 42 µmol/kg

## OCCN1CCN([C@@H]2C[C@@H](c3ccccc3)c3ccc(C(F)(F)F)cc32)CC1 (relative stereo)
[1]; [12]
  ED50: 10.4 µmol/kg
[2]
  ED50: 5.7 µmol/kg
[3]
  ED50: 4.7 µmol/kg

## CN(C)C[C@H]1C2CCC(CC2)[C@H]1c1ccc(Cl)c(Cl)c1 (relative stereo)
[6]
  IC50: 13 nM

## OCCN1CCN([C@@H]2C[C@@H](c3ccc(Cl)cc3)c3ccc(Cl)cc32)CC1 (relative stereo)
[2]
  ED50: > 86 µmol/kg
[3]
  ED50: > 86 µmol/kg

## OCCN1CCN([C@@H]2C[C@@H](c3ccc(Cl)cc3)c3ccc(C(F)(F)F)cc32)CC1 (relative stereo)
[1]; [12]
  ED50: 22 µmol/kg
[2]
  ED50: 29 µmol/kg
[3]
  ED50: 40 µmol/kg

## CN1CCN(C2CC(c3ccc(Cl)c(Cl)c3)c3ccccc32)CC1.Cl.Cl (single isomer, unassigned; 95)
[6]
  IC50: 2500 nM
[7]
  IC50: 120 nM
[8]
  ED50: >91 µM/kg
[9]
  IC50: 340 nM

## CN1CCN(C2CC(c3ccc(Cl)c(Cl)c3)c3ccccc32)CC1.Cl.Cl (single isomer, unassigned; 96)
[6]
  IC50: 230 nM
[7]
  IC50: 7.8 nM
[8]
  ED50: 26 µM/kg
[9]
  IC50: 10 nM

## CN1CCN(C2CC(c3ccc(Cl)c(Cl)c3)c3ccccc32)CC1.Cl.Cl (single isomer, unassigned; 99)
[6]
  IC50: 530 nM
[7]
  IC50: 2.5 nM
[8]
  ED50: 69 µM/kg
[9]
  IC50: 2.3 nM

## CN1CCN(C2CCC(c3ccc(F)cc3)c3ccc(F)cc32)CC1 (stereo in doubt; 3b)
[3]
  ED50: > 96 µmol/kg

## CN1CCN(C2CC(c3ccc(F)cc3)c3ccc(F)cc32)CC1.Cl.Cl (stereo in doubt; 56)
[1]
  ED50: >95 µM/kg
[4]
  ED50: >95 µM/kg
[10]
  IC50: 6100 nM
[11]
  IC50: 110 nM

## Cl.Cl.Fc1ccc(C2CC(N3CCN(CC4CC4)CC3)c3cc(F)ccc32)cc1 (stereo in doubt; 59)
[1]; [12]
  ED50: 36 µmol/kg
[4]
  ED50: 11 µM/kg
[2]
  ED50: 53 µmol/kg

## Cl.Cl.Fc1ccc(C2CC(N3CCN(CC4CC4)CC3)c3cc(F)ccc32)cc1 (stereo in doubt; 60)
[4]
  ED50: >91 µM/kg

## Fc1ccc(C2CC(N3CCN(C/C=C/c4ccccc4)CC3)c3cc(F)ccc32)cc1 (stereo in doubt; 63)
[10]
  IC50: 160 nM
[11]
  IC50: 340 nM
[3]
  ED50: 57 µmol/kg

## Cl.Cl.Fc1ccc(C2CC(N3CCN(C/C=C/c4ccccc4)CC3)c3cc(F)ccc32)cc1 (stereo in doubt; 64)
[4]
  ED50: >79 µM/kg
[10]
  IC50: 400 nM
[11]
  IC50: 210 nM

## CC(O)CN1CCN(C2CC(c3ccc(F)cc3)c3ccc(F)cc32)CC1.Cl.Cl (stereo in doubt; 71)
[1]; [12]
  ED50: 12 µmol/kg
[4]
  ED50: 2.8 µM/kg
[2]
  ED50: 37 µmol/kg

## CC(O)CN1CCN(C2CC(c3ccc(F)cc3)c3ccc(F)cc32)CC1.Cl.Cl (stereo in doubt; 72)
[4]
  ED50: 45 µM/kg

## Cl.Cl.OCC(CO)N1CCN(C2CC(c3ccc(F)cc3)c3ccc(F)cc32)CC1 (stereo in doubt; 77)
[4]
  ED50: >43 µM/kg

## CN1CCN(C2CC(c3ccc(Cl)c(Cl)c3)c3ccccc32)CC1.Cl.Cl (stereo in doubt; 97)
[6]
  IC50: 630 nM
[7]
  IC50: 7.7 nM
[8]
  ED50: 100 µM/kg
[9]
  IC50: 4.4 nM

## Cl.Cl.Clc1ccc(C2CC(N3CCN(C/C=C/c4ccccc4)CC3)c3ccccc32)cc1Cl (stereo in doubt; 104)
[8]; Mus musculus, read-out: ED50
  ED50: > 75 µmol/kg
[9]
  IC50: 100 nM

## CCN1CCN(C2CC(c3ccc(F)cc3)c3ccc(F)cc32)CC1.Cl.Cl (trans isomer)
[1]; [12]
  ED50: 14 µmol/kg
[4]
  ED50: 7 µM/kg
[2]
  ED50: 53 µmol/kg

## Cl.Cl.OCC(CO)N1CCN(C2CC(c3ccc(F)cc3)c3ccc(F)cc32)CC1 (trans isomer)
[1]; [12]
  ED50: 25 µmol/kg
[4]
  ED50: 4.2 µM/kg
[2]
  ED50: 124 µmol/kg

## CC(C)(O)CN1CCN(C2CC(c3ccc(F)cc3)c3ccc(F)cc32)CC1 (trans isomer)
[1]; [12]
  ED50: 30 µmol/kg
[3]
  ED50: > 87 µmol/kg

## N#CCCN1CCN(C2CC(c3ccc(F)cc3)c3ccc(F)cc32)CC1 (trans isomer)
[1]; [12]
  ED50: > 91 µmol/kg
[3]
  ED50: 73 µmol/kg

## NC(=O)CN1CCN(C2CC(c3ccc(F)cc3)c3ccc(F)cc32)CC1 (trans isomer)
[3]
  ED50: > 88 µmol/kg

## OCCN1CCN(C2CC(c3ccc(F)cc3)c3cc(F)ccc32)CC1 (trans isomer)
[1]; [12]
  ED50: > 93 µmol/kg
[2]
  ED50: > 93 µmol/kg
[3]
  ED50: 14 µmol/kg

## COc1ccc2c(c1)C(N1CCN(CCO)CC1)CC2c1ccc(F)cc1 (trans isomer)
[1]; [12]
  ED50: 38 µmol/kg
[2]
  ED50: 102 µmol/kg
[3]
  ED50: 19 µmol/kg

## CC(C)c1ccc2c(c1)C(N1CCN(CCO)CC1)CC2c1ccc(F)cc1 (trans isomer)
[1]; [12]
  ED50: 26 µmol/kg
[2]
  ED50: 17 µmol/kg
[3]
  ED50: 9.6 µmol/kg

## Cc1ccc2c(c1)C(N1CCN(CCO)CC1)CC2c1ccc(F)cc1 (trans isomer)
[1]; [12]
  ED50: 21 µmol/kg
[2]
  ED50: 17 µmol/kg
[3]
  ED50: 7.6 µmol/kg

## CS(=O)(=O)c1ccc2c(c1)C(N1CCN(CCO)CC1)CC2c1ccc(F)cc1 (trans isomer)
[3]
  ED50: 20 µmol/kg

## Cl.Cl.OCCN1CCN(C2CC(c3ccc(Cl)cc3Cl)c3ccccc32)CC1 (trans isomer)
[8]; Mus musculus, read-out: ED50
  ED50: > 86 µmol/kg
[9]
  IC50: 4500 nM

## OCCN1CCN(C2CC(c3ccc(F)cc3)c3ccc(Cl)cc32)CC1 (trans isomer)
[1]; [12]
  ED50: 3.5 µmol/kg
[2]
  ED50: 3.3 µmol/kg
[3]
  ED50: 2.8 µmol/kg

## CN1CCN(C2CC(c3ccc(Cl)c(Cl)c3)c3ccccc32)CC1.Cl.Cl (trans isomer)
[6]
  IC50: 200 nM
[7]
  IC50: 32 nM
[8]
  ED50: 48 µM/kg
[9]
  IC50: 11 nM

## Cl.Cl.OCCN1CCN(C2CC(c3ccc(Cl)c(Cl)c3)c3ccccc32)CC1 (trans isomer)
[6]
  IC50: 210 nM
[7]
  IC50: 8.2 nM
[8]
  ED50: 45 µM/kg
[9]
  IC50: 2.8 nM

## CN1CCN(C2CCC(c3ccc(F)cc3)c3ccc(F)cc32)CC1 (trans isomer)
[4]
  ED50: >117 µM/kg

## Fc1ccc(C2CC(N3CCN(CCc4ccccc4)CC3)c3cc(F)ccc32)cc1 (trans isomer)
[4]
  ED50: 37 µM/kg

## CN1CCN(C2Cc3ccccc3Sc3ccc(Cl)cc32)CC1 (configuration not stated) [CLOROTEPINE]
[1]; [12]
  ED50: 0.56 µmol/kg
[2]
  ED50: 4.5 µmol/kg
[3]
  ED50: 6.7 µmol/kg

## CN1Cc2c(N)cccc2C(c2ccccc2)C1 (configuration not stated) [NOMIFENSINE]
[7]
  IC50: 6.6 nM
[9]
  IC50: 48 nM
